# Measured values as given in ChEMBL document CHEMBL5236603, “Discovery of mobocertinib, a potent, oral inhibitor of EGFR exon 20 insertion mutations in non-small cell lung cancer” (Bioorg Med Chem Lett, 2023).
# Experiments:
# [1] = Inhibition of mouse EGFR V769_D770insASV mutant stably expressed in mouse BaF3 cells assessed as cell viability incubated for 3 days by Cell Titer-Glo assay; format: cell-based; conditions: BaF3, 72 h
# [2] = target: T1, Epidermal growth factor receptor (Homo sapiens, UniProt P00533); experiment: Inhibition of […]-induced EGFR phosphorylation in human A549 cells pretreated for 2 hrs followed by EGF stimulation by immune assay; format: cell-based
# T1 sequence (P00533 whole entry): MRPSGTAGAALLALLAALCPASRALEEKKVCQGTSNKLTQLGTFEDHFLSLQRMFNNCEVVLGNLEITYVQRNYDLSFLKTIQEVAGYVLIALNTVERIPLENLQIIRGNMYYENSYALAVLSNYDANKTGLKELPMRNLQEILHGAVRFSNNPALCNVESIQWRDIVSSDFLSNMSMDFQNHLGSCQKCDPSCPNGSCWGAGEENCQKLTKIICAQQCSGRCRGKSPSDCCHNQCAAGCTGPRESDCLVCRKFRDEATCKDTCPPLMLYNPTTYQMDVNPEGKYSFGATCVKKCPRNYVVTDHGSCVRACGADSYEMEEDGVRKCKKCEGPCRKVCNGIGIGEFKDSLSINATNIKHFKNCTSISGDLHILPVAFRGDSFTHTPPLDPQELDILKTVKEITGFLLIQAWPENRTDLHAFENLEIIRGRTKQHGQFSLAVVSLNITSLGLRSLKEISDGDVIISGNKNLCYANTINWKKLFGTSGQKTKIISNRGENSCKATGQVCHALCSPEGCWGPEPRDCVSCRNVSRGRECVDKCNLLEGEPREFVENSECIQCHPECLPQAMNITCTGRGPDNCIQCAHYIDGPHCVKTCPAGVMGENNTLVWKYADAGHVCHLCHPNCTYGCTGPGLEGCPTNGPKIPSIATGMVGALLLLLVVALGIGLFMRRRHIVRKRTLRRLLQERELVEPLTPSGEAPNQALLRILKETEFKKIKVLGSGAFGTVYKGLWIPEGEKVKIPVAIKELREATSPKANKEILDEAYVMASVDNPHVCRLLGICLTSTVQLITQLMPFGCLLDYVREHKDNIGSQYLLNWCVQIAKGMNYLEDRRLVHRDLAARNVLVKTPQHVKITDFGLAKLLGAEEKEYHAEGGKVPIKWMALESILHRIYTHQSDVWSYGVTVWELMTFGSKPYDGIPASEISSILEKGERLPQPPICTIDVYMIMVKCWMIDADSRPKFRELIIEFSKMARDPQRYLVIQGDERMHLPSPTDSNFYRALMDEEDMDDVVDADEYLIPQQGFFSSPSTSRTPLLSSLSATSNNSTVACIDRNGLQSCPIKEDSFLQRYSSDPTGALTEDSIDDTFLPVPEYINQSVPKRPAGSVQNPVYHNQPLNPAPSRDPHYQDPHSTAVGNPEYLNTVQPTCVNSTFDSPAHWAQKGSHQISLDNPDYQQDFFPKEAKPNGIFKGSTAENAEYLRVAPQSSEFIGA
# [3] = Cmax in CD-1 mouse at 10 mg/kg, po by LC/MS/MS analysis; format: ADME, organism-based; parameters: dose 10 mg/kg, route po; conditions: in vivo
# [4] = Toxicity in SCID mouse assessed as body weight change at 100 mg/kg, po administered for 7 consecutive days; format: organism-based; conditions: in vivo
# [5] = Inhibition of mouse EGFR del-T790M mutant stably expressed in mouse BaF3 cells assessed as cell viability incubated for 3 days by Cell Titer-Glo assay; format: cell-based; conditions: BaF3, 72 h
# [6] = Inhibition of mouse EGFR L858R-T790M mutant stably expressed in mouse BaF3 cells assessed as cell viability incubated for 3 days by Cell Titer-Glo assay; format: cell-based; conditions: BaF3, 72 h
# [7] = target: T1, Epidermal growth factor receptor; experiment: Inhibition of […]-induced wild type EGFR phosphorylation in human A-431 cells pretreated for 2 hrs followed by EGF stimulation by immune assay; format: cell-based
# BaF3 = experiment: Anticancer activity against parental mouse BaF3 cells assessed as cell viability incubated for 3 days by Cell Titer-Glo assay; format: functional, cell-based; conditions: BaF3, 72 h
# [8] = target: Tyrosine-protein kinase Blk (Homo sapiens) (UniProt P51451); experiment: Inhibition of human BLK at 1 uM by hotspot assay relative to control
# Sequence of Tyrosine-protein kinase Blk (Homo sapiens) (P51451 2-505 limits assumed): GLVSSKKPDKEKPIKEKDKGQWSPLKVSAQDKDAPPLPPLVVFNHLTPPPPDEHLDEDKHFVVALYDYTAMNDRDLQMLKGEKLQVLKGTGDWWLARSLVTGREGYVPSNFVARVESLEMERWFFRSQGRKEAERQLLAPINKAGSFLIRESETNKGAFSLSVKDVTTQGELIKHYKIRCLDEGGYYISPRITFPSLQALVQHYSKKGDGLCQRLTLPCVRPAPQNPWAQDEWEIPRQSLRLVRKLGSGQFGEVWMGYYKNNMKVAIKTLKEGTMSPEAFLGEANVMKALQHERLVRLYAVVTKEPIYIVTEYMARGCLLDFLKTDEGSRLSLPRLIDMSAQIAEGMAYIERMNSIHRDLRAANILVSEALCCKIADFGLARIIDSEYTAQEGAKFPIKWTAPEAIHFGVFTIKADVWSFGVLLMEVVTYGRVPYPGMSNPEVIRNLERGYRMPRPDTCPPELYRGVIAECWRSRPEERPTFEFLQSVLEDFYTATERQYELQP
# [9] = target: T2, Tyrosine-protein kinase JAK3 (Homo sapiens) (UniProt P52333); experiment: Inhibition of human JAK3 at 1 uM by hotspot assay relative to control
# T2 sequence (whole entry): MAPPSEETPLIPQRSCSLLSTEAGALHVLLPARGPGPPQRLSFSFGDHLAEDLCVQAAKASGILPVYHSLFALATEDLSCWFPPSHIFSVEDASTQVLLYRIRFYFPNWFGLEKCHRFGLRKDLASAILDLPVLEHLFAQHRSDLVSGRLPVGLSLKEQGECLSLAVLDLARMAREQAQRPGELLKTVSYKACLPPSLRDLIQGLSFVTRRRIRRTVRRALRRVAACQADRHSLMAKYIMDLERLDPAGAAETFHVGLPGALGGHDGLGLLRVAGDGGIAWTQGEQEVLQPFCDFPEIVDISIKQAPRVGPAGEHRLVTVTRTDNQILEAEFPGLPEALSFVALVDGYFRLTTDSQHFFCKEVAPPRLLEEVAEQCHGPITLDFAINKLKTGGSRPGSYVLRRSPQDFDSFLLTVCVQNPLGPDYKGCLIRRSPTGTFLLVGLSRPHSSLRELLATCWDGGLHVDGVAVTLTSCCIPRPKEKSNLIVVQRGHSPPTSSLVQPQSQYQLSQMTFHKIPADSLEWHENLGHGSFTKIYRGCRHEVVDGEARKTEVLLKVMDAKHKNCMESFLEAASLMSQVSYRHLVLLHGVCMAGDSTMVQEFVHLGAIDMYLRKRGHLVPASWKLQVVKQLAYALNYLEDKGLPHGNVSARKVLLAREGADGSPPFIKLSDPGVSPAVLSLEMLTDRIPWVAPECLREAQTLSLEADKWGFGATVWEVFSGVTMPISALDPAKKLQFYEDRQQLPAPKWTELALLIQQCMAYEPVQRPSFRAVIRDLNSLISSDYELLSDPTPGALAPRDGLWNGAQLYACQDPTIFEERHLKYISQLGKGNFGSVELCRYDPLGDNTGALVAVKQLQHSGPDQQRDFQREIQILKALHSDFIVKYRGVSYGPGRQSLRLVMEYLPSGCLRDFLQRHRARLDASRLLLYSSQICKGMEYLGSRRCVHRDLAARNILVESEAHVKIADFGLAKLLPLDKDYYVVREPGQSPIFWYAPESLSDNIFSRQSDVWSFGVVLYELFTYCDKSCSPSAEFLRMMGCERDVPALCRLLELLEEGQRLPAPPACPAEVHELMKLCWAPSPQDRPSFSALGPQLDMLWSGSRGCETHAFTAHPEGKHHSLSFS
# [10] = target: T3, Tyrosine-protein kinase TXK (Homo sapiens) (UniProt P42681); experiment: Inhibition of human TXK at 1 uM by hotspot assay relative to control
# T3 sequence (whole entry): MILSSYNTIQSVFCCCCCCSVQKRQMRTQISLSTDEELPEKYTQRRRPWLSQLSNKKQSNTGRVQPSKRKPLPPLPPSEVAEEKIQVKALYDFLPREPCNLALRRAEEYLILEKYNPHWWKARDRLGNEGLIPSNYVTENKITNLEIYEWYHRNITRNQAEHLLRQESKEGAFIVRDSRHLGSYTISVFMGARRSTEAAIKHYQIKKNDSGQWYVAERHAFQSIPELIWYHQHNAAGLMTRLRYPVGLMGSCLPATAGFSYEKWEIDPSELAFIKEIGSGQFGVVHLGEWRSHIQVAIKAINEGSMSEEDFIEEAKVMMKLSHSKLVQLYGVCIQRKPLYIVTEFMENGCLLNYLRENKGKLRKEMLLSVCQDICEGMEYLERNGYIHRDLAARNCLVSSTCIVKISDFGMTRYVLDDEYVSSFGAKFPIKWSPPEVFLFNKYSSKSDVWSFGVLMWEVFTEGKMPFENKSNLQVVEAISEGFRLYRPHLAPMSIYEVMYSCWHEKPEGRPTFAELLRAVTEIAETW
# [11] = target: T4, Tyrosine-protein kinase Tec (Homo sapiens) (UniProt P42680); experiment: Inhibition of human TEC at 1 uM by hotspot assay relative to control
# T4 sequence (whole entry): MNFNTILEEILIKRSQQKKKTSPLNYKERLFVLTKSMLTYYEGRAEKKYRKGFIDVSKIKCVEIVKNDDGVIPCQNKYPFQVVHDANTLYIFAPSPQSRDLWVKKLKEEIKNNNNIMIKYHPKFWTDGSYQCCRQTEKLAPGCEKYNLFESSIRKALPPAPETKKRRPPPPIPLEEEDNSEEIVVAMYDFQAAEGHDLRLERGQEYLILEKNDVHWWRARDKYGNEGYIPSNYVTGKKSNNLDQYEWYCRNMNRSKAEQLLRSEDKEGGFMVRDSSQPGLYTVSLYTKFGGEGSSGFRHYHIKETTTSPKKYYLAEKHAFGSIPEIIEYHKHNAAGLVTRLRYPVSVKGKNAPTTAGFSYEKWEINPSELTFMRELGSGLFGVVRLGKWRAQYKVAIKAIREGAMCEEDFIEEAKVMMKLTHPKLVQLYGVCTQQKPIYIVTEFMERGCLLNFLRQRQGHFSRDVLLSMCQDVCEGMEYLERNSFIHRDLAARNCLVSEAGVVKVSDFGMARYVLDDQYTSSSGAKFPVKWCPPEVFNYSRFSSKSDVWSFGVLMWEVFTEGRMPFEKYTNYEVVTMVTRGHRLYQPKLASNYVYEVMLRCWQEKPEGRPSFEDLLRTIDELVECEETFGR
# [12] = target: Tyrosine-protein kinase BTK (Homo sapiens) (UniProt Q06187); experiment: Inhibition of human BTK at 1 uM by hotspot assay relative to control
# Sequence of Tyrosine-protein kinase BTK (Homo sapiens) (Q06187 whole entry): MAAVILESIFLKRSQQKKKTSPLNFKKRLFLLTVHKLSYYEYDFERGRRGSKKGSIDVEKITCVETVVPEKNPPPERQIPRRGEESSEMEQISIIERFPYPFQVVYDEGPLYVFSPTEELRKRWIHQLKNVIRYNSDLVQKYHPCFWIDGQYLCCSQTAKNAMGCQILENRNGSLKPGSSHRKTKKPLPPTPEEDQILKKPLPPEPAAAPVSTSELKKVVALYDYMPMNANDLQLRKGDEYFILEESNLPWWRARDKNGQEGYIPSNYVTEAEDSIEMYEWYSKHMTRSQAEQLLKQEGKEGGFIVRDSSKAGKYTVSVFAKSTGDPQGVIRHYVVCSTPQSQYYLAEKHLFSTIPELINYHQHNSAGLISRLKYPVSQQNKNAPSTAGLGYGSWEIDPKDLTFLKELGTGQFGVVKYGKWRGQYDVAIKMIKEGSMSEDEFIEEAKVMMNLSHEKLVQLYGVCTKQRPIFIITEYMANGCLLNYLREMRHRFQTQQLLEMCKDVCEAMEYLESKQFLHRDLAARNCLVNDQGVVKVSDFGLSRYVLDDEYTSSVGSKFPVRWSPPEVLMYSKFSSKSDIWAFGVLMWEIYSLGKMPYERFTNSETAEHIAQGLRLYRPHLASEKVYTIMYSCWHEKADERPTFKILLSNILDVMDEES
compound,measurement,setting,value
C=CC(=O)Nc1cc(Nc2ncc(C(=O)OC(C)C)c(-c3cn(C)c4ccccc34)n2)c(OC)cc1N(C)CCN(C)C [MOBOCERTINIB],IC50,[1],11 nM
same,IC50,[2],31 nM
same,Cmax,[3],82 ng/mL
same,Activity,[4],Non-Toxic
same,IC50,[5],6.3 nM
same,IC50,[6],21.3 nM
same,IC50,[7],34.5 nM
same,IC50,BaF3,3950 nM
same,inhibition,[8],> 81%
same,inhibition,[9],> 81%
same,inhibition,[10],> 81%
same,inhibition,[11],> 81%
same,inhibition,[12],> 81%
